Test results from patent US7271274B2, “Phenolic antioxidants for the treatment of disorders including arthritis, asthma and coronary artery disease” (AhteroGenics, Inc., priority 2004, dated 2007).

Legend:
[1] = clinical trials; cited from earlier work
[2] = system: murine model of allergic pulmonary inflammation; conditions: cited from earlier work
Male BALB/c mice = assay: mBSA-induced delayed-type hypersensitivity (DTH) model of inflammation in mice; assay type: in vivo; conditions: vehicle swelling = 100%
Procedure: The methylated bovine serum albumin (mBSA)-induced delayed-type hypersensitivity (DTH) model of mice is generally used for screening compounds with anti-inflammatory effects (Sarnstrand et al., Pharmacol. Exp. Ther. 1999, 288, 1174–84). Compounds of Ex-1 and Ex-2 were tested in this model, dosed subcutaneously at 24 and 2 hrs prior to challenge at doses of 50 and 25 mg/kg with cyclosporin A (CSA) as positive control.
Male BALB/c mice (20–25 g) were sensitized on day 0 by intradermal abdominal injection of 100 μL of a 1:1 emulsion of mBSA (5 mg/ml) and Freund's complete adjuvant. On day 7, the mice were challenged by injecting 25 μL of mBSA (5 mg/ml) into the footpad of the right hindpaw and the left hindpaw was injected with saline. Mice were treated by s.c. injection of test compound 24 hrs and 2 hrs before the challenge. Twenty four hours after challenge mice were sacrificed by CO2 inhalation. The feet were removed by cutting just above the heel with scissors, and the mass of the saline-injected foot was subtracted from the mass of the mBSA injected foot to determine the amount of swelling that occurred in the latter. Inhibition of swelling for test compound group was calculated, taking the swelling of the vehicle-treated group as 100%. The results from the DTH model are summarized for examples 1 and 2 in Biological Table 4 using cyclosporine A (CSA) as a positive control.

Balb/C mice = assay: In vivo asthma model (ovalbumin-sensitized mice, BAL fluid eosinophilia); conditions: 25 mg/kg, sc, qd; BALF eosinophilia vs vehicle control
Procedure: Balb/C mice (6–8 weeks old) were sensitized to ovalbumin (ova) (8 ug ova absorbed in 3.3 mg Alum inject) on days 0 and 5. On day 12, the mice were aerosol challenged with 0.5% ovalbumin dissolved in sterile saline for 1 hr in the AM, and then again in the PM (at least 4 hr apart). On day 14, the mice were anesthetized with ketamine/xylazine/acepromazine cocktail, exsanguinated, and then euthanized. Following blood collection, bronchoaveolar lavage (BAL) was performed on each animal. Total cell counts were conducted on the lavage fluid, which was subsequently diluted with cell media 1:1. Slides of the lavage fluid were made by spinning the samples with a cytospin centrifuge and then air drying. Cell differentials of the lavage fluid were determined by microscopic evaluation of hematoxylin and eosin-stained slides. Data are expressed as the % inhibition of eosinophilia in the BAL fluid compared to the vehicle control. […] The formulations used contained various mixtures of the following excipients (propylene glycol, polyethylene glycol, Tween 80, Glycofurol).

VCAM-1 [3] = assay: In Vitro VCAM-1 Assay - Method 1 (TNF-α stimulated endothelial cells, surface VCAM-1 ELISA); assay type: cell-based; conditions: Homo sapiens, Endothelial cell; HAEC or HPAEC, TNF-α 1 ng/ml with compound approximately 16 hours
Procedure: Cell Culture and compound dosing: Cultured primary human aortic (HAEC) or pulmonary (HPAEC) endothelial cells were obtained from Clonetics, Inc., and were used below passage 9. Cells were seeded in 96 well plates such that they would reach 90–95% confluency by the following day. On the following day the cells were stimulated with TNF-α (1 ng/ml) in the presence or absence of compounds dissolved in DMSO such that the final concentration of DMSO is 0.25% or less. To establish a dose curve for each compound, four concentrations in 2- to 5-fold increments were used. Cells were exposed to TNF-α and compounds for approximately 16 hours. The next day the cells were examined under microscope to score for visual signs of toxicity or cell stress.
Following 16 hr exposure to TNF-α and compound the media was discarded and the cells were washed once with Hanks Balanced Salt Solution (HBSS)/Phosphate buffered saline (PBS) (1:1). Primary antibodies against VCAM-1 (0.25 μg/ml in HBSS/PBS+5% FBS) were added and incubated for 30–60 minutes at 37° C. Cells were washed with HBSS/PBS three times, and secondary antibody Horse Radish Peroxidase (HRP)-conjugated goat anti-mouse IgG (1:500 in HBSS/PBS+5% FBS) were added and incubated for 30 minutes at 37° C. Cells were washed with HBSS/PBS four time and TMB substrate were added and incubated at room temperature in the dark until there was adequate development of blue color. The length of time of incubation was typically 5–15 minutes. 2N sulfuric acid was added to stop the color development and the data was collected by reading the absorbance on a BioRad ELISA plate reader at OD 450 nm. The results are expressed as IC50 values (the concentration (micromolar) of compound required to inhibit 50% of the maximal response of the control sample stimulated by TNF-α only). IC50's of tested compounds are tabulated in Biological Table 1.

IL-6 = assay: Cytokine screening: LPS-induced secretion of IL-6 from hPBMCs; assay type: cell-based; conditions: Homo sapiens, Biological Table 2, LPS 1 μg/ml, mean ± standard deviation
Procedure: (§1) Fresh cryopreserved hPBMCs (1 million cells/ml; Clonetics, Inc.) were pretreated with test compound for 1 hr in lymphocyte growth media-3 (Clonetics, Inc.), followed by stimulation with 1 μg/ml of LPS for another 2 hr in the presence of test compound. Conditioned media was collected and assayed for secreted TNF-α, IL-1β and […] using commercially available human ELISA kits (R&D Systems). Samples were measured in duplicate and data presented as mean ± standard deviation. Each experiment was repeated at least three times with similar results.

TNF-α = assay: Cytokine screening: LPS-induced secretion of TNF-α from hPBMCs; assay type: cell-based; conditions: Homo sapiens
Procedure: as §1

VCAM-1 [4] = assay: In Vitro VCAM-1 Assay - Method 2 (19 h predosing, 4 h TNFα stimulation, surface VCAM-1); assay type: cell-based; conditions: Homo sapiens; HAEC or HPAEC, predosed 19 hours, TNFα 1.5 ng/ml 4 hours
Procedure: Cultured primary human aortic (HAEC) or pulmonary artery (HPAEC) endothelial cells are obtained from BioWhittaker (formerly Clonetics), and are used below passage 9. Cells are seeded in 96-well plates such that they will reach ˜95% confluency by the following day (i.e.10,000 cells/well). Compounds are reconstituted in DMSO (100%) and sonicated to ensure maximum dissolution. Dilutions are then made in DMSO to 500× of final concentrations. These stocks are then diluted 500× into cell culture media (EGM-2 Mv, BioWhittaker) and placed overnight in tissue culture incubator (37° C., 5% CO2) to allow maximum dissolution).
Media is removed from the cells and replaced with the prewarmed dosing media. Cells are predosed in this manner for 19 hours at 37° C., 5% CO2. Remove media again from the cells and replace with prepared dosing media containing TNFα (1.5 ng/ml). Allow stimulation to continue for 4 hours at 37° C., 5% CO2. Media is removed and saved for evaluation of secreted factors as needed. Cells are used for quantitating surface VCAM-1, followed by Hoescht nuclear stain for cell number to determine toxicity. Assay for surface VCAM-1 continues as described in Method 1. IC50's of tested compounds are tabulated in Biological Table 1.

IL-1β = assay: Cytokine screening: LPS-induced secretion of IL-1β from hPBMCs; assay type: cell-based; conditions: Homo sapiens, Biological Table 2, LPS 1 μg/ml, mean ± standard deviation
Procedure: as §1

Female Lewis rats = assay: In vivo rheumatoid arthritis model (Freund's complete adjuvant, paw swelling); conditions: paw swelling vs vehicle control
Procedure: Female Lewis rats (200–250 g) were sensitized with Freund's complete adjuvant (100 ug) by subcutaneous injection at the base of the tail. Paw swelling was monitored by measuring the volume of each foot with a plethysmometer on days 5, 8, 12–15. Animals were euthanized on day 15. […] Data is expressed as the % inhibition of paw swelling (AUC of the paw volume vs time curve d5–15) compared with vehicle control. The formulations used contained various mixtures of the following excipients (propylene glycol, polyethylene glycol, Tween 80, Glycofurol).

[5] = system: LDL receptor-deficient rabbits; conditions: cited from earlier work
[6] = 25 mg/Kg s.c. 24 hrs and 2 hrs before challenge
[7] = 50 mg/Kg s.c. 24 hrs and 2 hrs before challenge
[8] = Biological Table 3, LPS-induced secretion from hPBMN cells, average of at least three determinations
[9] = Biological Table 2, hPBMCs, LPS 1 μg/ml, mean ± standard deviation

melting point	IC50 (VCAM-1 [3])	IC50 (IL-6)	IC50 (TNF-α; [8])	IC50 (TNF-α; [9])	IC50 (IL-1β)	SMILES	Percent Inhibition (of swelling) (Male BALB/c mice; [6])	Percent Inhibition (of swelling) (Male BALB/c mice; [7])	Inhibition of BAL fluid eosinophilia (asthma model) (Balb/C mice)	further results
						CC(C)(Sc1cc(C(C)(C)C)c(O)c(C(C)(C)C)c1)Sc1cc(C(C)(C)C)c(OC(=O)CCC(=O)O)c(C(C)(C)C)c1 [AGI-1067]				QTc prolongation [1]: did not cause QTc prolongation
						COc1cc(CC(=O)N[C@@H](CC(C)C)c2cc(CCC(=O)O)on2)ccc1NC(=O)Nc1ccccc1C [CP-664511]				airway eosinophil infiltration [2]: inhibited airway eosinophil infiltration
69 to 71 °C	7 µM	1.7 ± 0.9 µM	5.1 µM	4 ± 1 µM	7.7 ± 0.6 µM	CC(C)(Sc1cc(C(C)(C)C)c(O)c(C(C)(C)C)c1)Sc1cc(C(C)(C)C)c(OC[C@H](O)[C@@H](O)CO)c(C(C)(C)C)c1 [Ex-1, 4-{2,6-Di-tert-butyl-4-[1-(3,5-di-tert-butyl-4-hydroxyphenylsulfanyl)-1-methylethyl-sulfanyl]phenoxy}butane-1,2(S),3(S)-triol]	+40%	+65%	87 percentage	IC50 (VCAM-1 [4]): 9 µM
69 to 71 °C	5 µM	1.2 ± 0.3 µM	1.6 µM	3.3 ± 0.3 µM	8 µM	CC(C)(Sc1cc(C(C)(C)C)c(O)c(C(C)(C)C)c1)Sc1cc(C(C)(C)C)c(OC[C@@H](O)[C@H](O)CO)c(C(C)(C)C)c1 [Ex-2, 4-{2,6-Di-tert-butyl-4-[1-(3,5-di-tert-butyl-4-hydroxyphenylsulfanyl)-1-methylethylsulfanyl]-phenoxy}butane-1,2(R),3(R)-triol]	+25%	+60%	65 percentage	Rheumatoid arthritis model (25 mg/kg, sc, qd, inhibition of paw swelling in percentage) (Female Lewis rats): 75 percentage
						CC(C)(Sc1cc(C(C)(C)C)c(O)c(C(C)(C)C)c1)Sc1cc(C(C)(C)C)c(O)c(C(C)(C)C)c1 [probucol, 4,4′-(isopropylidenedithio) bis(2,6-di-tert-butylphenol)]				progression of atherosclerosis [5]: slow the progression of atherosclerosis
